Laboratory results published in ChEMBL document CHEMBL5236579, “Hydrophobicity Determines the Bacterial Killing Rate of α-Helical Antimicrobial Peptides and Influences the Bacterial Resistance Development” (J Med Chem, 2022).
Values after ≈ are worked out from the molar mass of the structure shown. Active and inactive are the calls of the source. The rule behind the calls is not given here. Where a SMILES comes first, the peptide text is derived from it.

Tests used:
[1] = test system: Staphylococcus aureus; assay: Antimicrobial activity against Staphylococcus aureus ATCC25923 by two fold broth microdilution method; assay type: functional; conditions: read-out: MIC
[2] = test system: Staphylococcus aureus; assay: Antimicrobial activity against clinical isolates Staphylococcus aureus by two fold broth microdilution method; assay type: functional
[3] = test system: Bacillus cereus; assay: Antimicrobial activity against clinical isolates Bacillus cereus by two fold broth microdilution method; assay type: functional
[4] = test system: Escherichia coli; assay: Antimicrobial activity against Escherichia coli ATCC27622 by two fold broth microdilution method; assay type: functional
[5] = test system: Vibrio parahaemolyticus; assay: Antimicrobial activity against Vibrio parahaemolyticus ATCC17802 by two fold broth microdilution method; assay type: functional
[6] = test system: Vibrio parahaemolyticus; assay: Bactericidal activity against Vibrio parahaemolyticus ATCC17802 assessed as killing rate at 0.5 X MIC by measuring time limit of detection by bacterial killing kinetic assay; assay type: functional
[7] = test system: Vibrio parahaemolyticus; assay: Induction of morphological changes in Vibrio parahaemolyticus ATCC17802 assessed as cellular inclusion leakage incubated at 5 times MIC and measured after 15 mins by scanning electron microscopy based analysis; assay type: functional, organism-based
[8] = test system: Vibrio parahaemolyticus; assay: Induction of morphological changes in Vibrio parahaemolyticus ATCC17802 assessed as surface fibrosis incubated at 5 times MIC and measured after 15 mins by scanning electron microscopy based analysis; assay type: functional, organism-based
[9] = test system: Vibrio parahaemolyticus; assay: Induction of morphological changes in Vibrio parahaemolyticus ATCC17802 assessed as massive cell collapse incubated at 5 times MIC and measured after 15 mins by scanning electron microscopy based analysis; assay type: functional, organism-based
[10] = test system: HaCaT; assay: Cytotoxicity against human HaCaT cells incubated for 48 hrs by MTT assay; assay type: toxicity, cell-based; conditions: dose < 250 µg/ml
[11] = test system: Peritoneal macrophage; assay: Cytotoxicity against mouse peritoneal macrophage cells incubated for 48 hrs by MTT assay; assay type: toxicity, cell-based; conditions: dose < 250 µg/ml
[12] = Hemolytic activity in human erythrocytes measured after 30 mins; assay type: toxicity, cell-based; conditions: erythrocyte, 0.5 h
[13] = test system: Cell membrane; assay: Induction of inner membrane permeabilization in Vibrio parahaemolyticus ATCC17802 at 5 times MIC measured upto 200 mins by propidium iodide penetration assay; assay type: cell membranes
[14] = test system: Cell membrane; assay: Induction of inner membrane permeabilization in Vibrio parahaemolyticus ATCC17802 assessed as calcein leakage at 5 times MIC by calcein-AM leakage assay; assay type: cell membranes; conditions: time <= 200.0 min, TDE = time-dependent effect
[15] = test system: Cell membrane; assay: Induction of inner membrane permeabilization in Vibrio parahaemolyticus ATCC17802 assessed as increase in PI fluorescence intensity at 5 times MIC by propidium iodide penetration assay; assay type: cell membranes; conditions: time <= 200.0 min
[16] = test system: Cell membrane; assay: Induction of bacterial inner membrane permeabilization in Vibrio parahaemolyticus ATCC17802 assessed as calcein leakage from large unilamellar vesicles liposomes at 5 times MIC measured upto 60 mins by fluorescence based microplate reader assay; assay type: cell membranes
[17] = test system: Cell membrane; assay: Induction of cytoplasmic membrane permeabilization in Vibrio parahaemolyticus […] assessed as calcein transmembrane diffusion into interior of gaint unilamellar vesicles by measuring time to equilibrium between inside and outside of vesicles at 2 ug/mL by confocal microscopy based calcein-AM leakage assay; assay type: cell membranes; conditions: dose 2.0 µg/ml
[18] = test system: Cell membrane; assay: Binding affinity to Vibrio parahaemolyticus ATCC17802 cell membrane assessed as increase in fluorescence intensity measured after 30 mins by flow cytometry analysis (reference value: 1.85%); assay type: cell membranes
[19] = test system: Cell membrane; assay: Binding affinity to Vibrio parahaemolyticus ATCC17802 cell membrane assessed as increase in fluorescence intensity measured after 120 mins by flow cytometry analysis (reference value: 1.88%); assay type: cell membranes
[20] = test system: Cell membrane; assay: Induction of outer membrane permeabilization in Vibrio parahaemolyticus ATCC17802 assessed as increase fluorescence intensity at 0.5 to 2 times of MIC by NPN uptake assay; assay type: cell membranes; conditions: time <= 15.0 min, TDE = time-dependent effect
[21] = test system: Cell membrane; assay: Induction of outer membrane permeabilization in Escherichia coli ATCC25722 assessed as increase fluorescence intensity at 0.5 to 2 times of MIC by NPN uptake assay; assay type: cell membranes; conditions: time <= 15.0 min, TDE = time-dependent effect
[22] = test system: Cell membrane; assay: Induction of outer membrane permeabilization in Vibrio parahaemolyticus ATCC17802 assessed as increase fluorescence intensity measured upto 15 mins by NPN uptake assay; assay type: cell membranes
[23] = test system: Cell membrane; assay: Induction of outer membrane permeabilization in Escherichia coli ATCC25722 assessed as increase fluorescence intensity measured upto 15 mins by NPN uptake assay; assay type: cell membranes
[24] = test system: Lipopolysaccharide (LPS); assay: Binding affinity to Escherichia coli LPS assessed as LPS neutralizing activity measured after 5 mins by LPS neutralization assay
[25] = test system: Lipopolysaccharide (LPS); assay: Binding affinity to Escherichia coli LPS assessed as LPS neutralizing activity measured after 60 mins by LPS neutralization assay
[26] = test system: Lipopolysaccharide (LPS); assay: Binding affinity to Escherichia coli LPS assessed as dissociation constant measured upto 600 sec by surface plasmon resonance imaging method
[27] = Effect on morphological changes in POPC/POPG (3:1) bilayer membrane assessed as formation of bulge aggregates by measuring the height of bulges at 2 ug/ml incubated for 40 mins under neutral pH and low ionic strength by atomic force microscopic analysis; assay type: cell membranes; conditions: Cell membrane, dose 2.0 µg/ml
[28] = test system: Escherichia coli; assay: In vivo antibacterial activity against Escherichia coli ATCC25722 infected in Balb/c mouse model assessed as reduction in bacterial CFU count on skin at 20 ug/ml applied 4 hrs after infection and measured after 120 mins; assay type: functional, organism-based; conditions: dose 20.0 µg/ml
[29] = test system: Escherichia coli; assay: In vivo antibacterial activity against Escherichia coli ATCC25722 infected in Balb/c mouse model assessed as reduction in bacterial CFU count on skin at 20 ug/ml incubated for 6 hrs post infection and measured after 2 hrs post compound treatment; assay type: functional, organism-based; conditions: dose 20.0 µg/ml, time 8.0 hrs
[30] = test system: Vibrio parahaemolyticus; assay: Induction of bacterial resistance in Vibrio parahaemolyticus ATCC17802 assessed as change in MIC treated over 30 serial passages measured after 24 hrs; assay type: functional, organism-based

CC[C@H](C)[C@H](NC(=O)[C@H](CC(C)C)NC(=O)[C@H](CCCNC(=N)N)NC(=O)[C@H](CC(C)C)NC(=O)[C@H](CC(C)C)NC(=O)[C@H](CCCCN)NC(=O)[C@H](CCCCN)NC(=O)[C@H](Cc1ccccc1)NC(=O)[C@H](CC(C)C)NC(=O)CNC(=O)[C@@H](N)CC(C)C)C(=O)N[C@@H](CC(C)C)C(=O)N[C@@H](CCCCN)C(=O)NCC(=O)N[C@@H](Cc1ccccc1)C(=O)N[C@@H](CCCCN)C(=O)N[C@@H](CC(C)C)C(=O)O (H-LGLFKKLLRLILKGFKL-OH)
MIC [1]: 1.17 µg/mL (≈ 0.585 µM) | MIC [2]: 9.38 µg/mL (≈ 4.69 µM) | MIC [3]: 9.38 µg/mL (≈ 4.69 µM) | MIC [4]: 9.38 µg/mL (≈ 4.69 µM) | MIC [5]: 4.69 µg/mL (≈ 2.34 µM) | Time [6]: 15 min | Activity [7]: Active | Activity [8]: Active | Activity [9]: Active | Activity [10]: Dose-Dependent Effect | Activity [11]: Dose-Dependent Effect | Activity [12]: Toxic | Activity [13]: Active | Activity [14]: Tde | Activity [15]: Active | Activity [16]: Active | TIME [17]: < 0.25 h | Activity [18]: 98.5% | Activity [19]: 88.1% | Activity [20]: Tde | Activity [21]: Tde | Activity [22]: Dose-Dependent Effect | Activity [23]: Dose-Dependent Effect | Activity [24]: Active | Activity [25]: Active | Kd [26]: 82.1 µM | Activity [27]: 20 nm | Activity [28]: Active | Activity [29]: Active | Activity [30]: inactive
